According to patent US6540792B1, “Cellulose fiber-containing structure” (priority 1999, dated 2003):

Experiment: Inorganic value/organic value ratio calculated by the organic concept (Fujita)
Conditions: concluded from the inorganic value/organic value ratio
Text: The “inorganic value/organic value ratio” in this invention is an indicator contrived by Minoru Fujita, to express the polarity of various organic compounds in view of organic concept [see Revised Edition, Science of Chemical Experiments, Organic Chemistry, Kawade shobo (1971)]. For the ratio, the organic value of one carbon (C) atom is decided as 20, and the inorganic and organic values of various polar groups are decided in reference to it, as shown in Table 1. The inorganic value/organic value ratio refers to the ratio of the sum of inorganic values to the sum of organic values.
According to this organic concept, for example, the inorganic value/organic value ratio of polyethylene terephthalate can be calculated as 0.7. In this invention, attention is paid to the affinity between synthetic fibers and an antimicrobial agent based on the value calculated according to the organic concept, and an antimicrobial agent with the inorganic value/organic value ratio kept in a predetermined range is caused to adhere to or to be exhausted and diffused into the synthetic fibers.
For example, in the case of 2,3,5,6-tetrachloro-4-hydroxypyridine, since it has one benzene nucleus, four —Cl groups, one —OH group and one —NR2 group, the inorganic value is 265. On the other hand, since it has five C (carbon) atoms and four —Cl groups, the organic value is 180. […]

In the case of `[Na+].[O-][n+]1ccccc1[S-]` [2-pyridylthiol-1-oxide sodium], the affinity to polyesters is reported as “poor”.
